Reference: article PMC3700073, “Synthesis and Biological Activity of New Thiopyrano[2,3-d]thiazoles Containing a Naphthoquinone Moiety” (Scientia Pharmaceutica, 2013)
Where two headings read alike, the source gives them in different places.

What was measured:
HCT-15 (colon cancer) = experiment: NCI five-dose assay; type: cell-based; details: Homo sapiens, HCT-15, HCT-15, colon cancer
MCF-7 (breast cancer) = experiment: NCI five-dose assay; type: cell-based; details: Homo sapiens, MCF7, MCF-7, breast cancer
M14 (melanoma) [1] = experiment: NCI single-concentration screen; type: cell-based, human; details: 10^−5 M
LOX IMVI (melanoma) = experiment: NCI five-dose assay; type: cell-based; details: Homo sapiens
BT-549 (breast cancer) = experiment: NCI five-dose assay; type: cell-based; details: Homo sapiens, BT-549, BT-549, breast cancer
SN12C (renal cancer) = experiment: NCI five-dose assay; type: cell-based; details: Homo sapiens
CCRF-CEM (leukemia) = experiment: NCI five-dose assay; type: cell-based; details: Homo sapiens
male mice = experiment: Acute toxicity in vivo, median lethal dose; details: intraperitoneal, approximate LD50 (Litchfield and Wilcoxon)
Experimental: The synthesized compounds were evaluated for their approximate LD50 in male mice. The mice were kept under a constant temperature and humidity in sterile cages with water and food. The stock solutions of the compounds used in this study were prepared immediately before usage and injected intraperitoneally (ip). The LD50 values (Tab. 3) were calculated using the method described by Litchfield and Wilcoxon.
The median lethal dose (LD50), the dose of the selected compounds that causes 50% mortality in mice, was determined from dose–response curves with at least four doses by the method of Litchfield and Wilcoxon.

PC-3 (prostate cancer) = experiment: NCI five-dose assay; type: cell-based; details: Homo sapiens
SNB-75 (CNS cancer) = experiment: NCI five-dose assay; type: cell-based; details: Homo sapiens, SNB-75, SNB-75, CNS cancer
[2] = tested on: MDA-MB-231/ATCC (breast cancer); experiment: NCI five-dose assay; type: cell-based; details: Homo sapiens, MDA-MB-231, MDA-MB-231/ATCC
A549/ATCC (NSCL cancer) = experiment: NCI five-dose assay; type: cell-based; details: Homo sapiens
HL-60(TB) (leukemia) = experiment: NCI five-dose assay; type: cell-based; details: Homo sapiens, HL-60, HL-60(TB)
[3] = tested on: MDA-MB-435 (breast cancer); experiment: NCI five-dose assay; type: cell-based; details: Homo sapiens, MDA-MB-435, MDA-MB-435, breast cancer
SK-MEL-2 (melanoma) = experiment: NCI five-dose assay; type: cell-based; details: Homo sapiens, SK-MEL-2, SK-MEL-2, melanoma
NCI-H23 (NSCL cancer) = experiment: NCI five-dose assay; type: cell-based; details: Homo sapiens
COLO 205 (colon cancer) = experiment: NCI five-dose assay; type: cell-based; details: Homo sapiens, COLO 205, COLO 205, colon cancer
SW-620 (colon cancer) = experiment: NCI five-dose assay; type: cell-based; details: Homo sapiens, SW-620, SW-620, colon cancer
OVCAR-5 (ovarian cancer) = experiment: NCI five-dose assay; type: cell-based; details: Homo sapiens, OVCAR-5, OVCAR-5, ovarian cancer
SF-295 (CNS cancer) [4] = experiment: NCI five-dose assay; type: cell-based; details: Homo sapiens, SF-295, SF-295, CNS cancer
SK-MEL-5 (melanoma) = experiment: NCI single-concentration screen; type: cell-based, human; details: 10^−5 M
MALME-3M (melanoma) [5] = experiment: NCI five-dose assay; type: cell-based; details: Homo sapiens
MALME-3M (melanoma) [6] = experiment: NCI single-concentration screen; type: cell-based, human; details: 10^−5 M
M14 (melanoma) [7] = experiment: NCI five-dose assay; type: cell-based; details: Homo sapiens
[8] = tested on: Mycobacterium tuberculosis H37Rv strain (ATCC 27294); experiment: Antimycobacterial pre-screening at 6.25 μg/mL (BACTEC 460 radiometric system); type: cell-based; details: M. tuberculosis H37Rv
60 cancer cell lines [9] = details: over the cell line panel
60 cancer cell lines [10] = experiment: NCI single-concentration screen, 60 cancer cell lines; type: cell-based, human; details: single concentration 10^−5 M
HS 578T (breast cancer) = experiment: NCI five-dose assay; type: cell-based, human; details: for GI50: Homo sapiens, Hs-578T, HS 578T, breast cancer
SF-295 (CNS cancer) [11] = experiment: NCI single-concentration screen; type: cell-based, human; details: 10^−5 M
[12] = tested on: MDA-MB-468 (breast cancer); experiment: NCI five-dose assay; type: cell-based; details: Homo sapiens, repeated testing
HCC-2998 (colon cancer) = experiment: NCI five-dose assay; type: cell-based; details: Homo sapiens, HCC 2998, HCC-2998, colon cancer
[13] = tested on: MDA-MB-435 (breast cancer); experiment: NCI single-concentration screen; type: cell-based, human; details: 10^−5 M
(melanoma) = experiment: NCI single-concentration screen; type: cell-based, human; details: SK-MEL-25 (melanoma), 10^−5 M

In the case of `COc1ccc(C2C3=C(Sc4[nH]c(=O)sc42)C(=O)c2ccccc2C3=O)cc1OC` (stereo not drawn) [Compound 4f, 11-(3,4-Dimethoxyphenyl)-3,11-dihydro-2H-benzo[6,7]thiochromeno[2,3-d][1,3]thiazole-2,5,10-trione], the GI50 (HCT-15 (colon cancer)) is reported as 3510 nM, the GI50 (MCF-7 (breast cancer)) is reported as 2250 nM and the “Growth % of the most sensitive cell line” value (M14 (melanoma) [1]) is reported as −80.36%. It also gave a GI50 (LOX IMVI (melanoma)) of 1260 nM, a GI50 (BT-549 (breast cancer)) of 2840 nM and a GI50 (SN12C (renal cancer)) of 3680 nM. The GI50 (CCRF-CEM (leukemia)) was 4380 nM, the LD50ip (male mice) was 410 mg/kg and the GI50 (PC-3 (prostate cancer)) was 5410 nM. It also gave a GI50 (SNB-75 (CNS cancer)) of 6640 nM, a GI50 [2] of 3130 nM and a GI50 (A549/ATCC (NSCL cancer)) of 2350 nM. The GI50 (HL-60(TB) (leukemia)) was 1980 nM, the GI50 [3] was 2190 nM and the GI50 (SK-MEL-2 (melanoma)) was 4190 nM. The GI50 (NCI-H23 (NSCL cancer)) was 1680 nM, the GI50 (COLO 205 (colon cancer)) was 3370 nM and the GI50 (SW-620 (colon cancer)) was 3960 nM. For the same compound, the GI50 (OVCAR-5 (ovarian cancer)) was 17700 nM, the GI50 (SF-295 (CNS cancer) [4]) was 3770 nM and the “Growth % of the most sensitive cell line” value (SK-MEL-5 (melanoma)) was −96.40%. For the same compound, the GI50 (MALME-3M (melanoma) [5]) was 2120 nM, the “Growth % of the most sensitive cell line” value (MALME-3M (melanoma) [6]) was −66.70% and the GI50 (M14 (melanoma) [7]) was 2670 nM. For the same compound, the inhibition at 6.25 µg/mL ([8]; 6.25 μg/mL) was 0%, the MIC90 ([8]; pre-screening, read-out: Estimation of MIC90) was > 6.25 µg/mL and the “TGI MG_MID” value (60 cancer cell lines [9]) was 14790 nM. It also gave a Mean growth % (60 cancer cell lines [10]) of 1.77% and a GI50 (HS 578T (breast cancer)) of 3710 nM.

`COc1cc(C2C3=C(Sc4[nH]c(=O)sc42)C(=O)c2ccccc2C3=O)ccc1O` (stereo not drawn) [Compound 4i, 11-(4-Hydroxy-3-methoxyphenyl)-3,11-dihydro-2H-benzo[6,7]thiochromeno[2,3-d]-[1,3]thiazole-2,5,10-trione] showed a GI50 (HCT-15 (colon cancer)) of 2070 nM, a GI50 (HCT-15 (colon cancer); repeated testing) of 1740 nM and a GI50 (MCF-7 (breast cancer)) of 1070 nM. The GI50 (MCF-7 (breast cancer); repeated testing) was 2260 nM, the “Growth % of the most sensitive cell line” value (SF-295 (CNS cancer) [11]) was −50.25% and the GI50 (LOX IMVI (melanoma)) was 160 nM. It also gave a GI50 (LOX IMVI (melanoma); repeated testing) of 250 nM, a GI50 (BT-549 (breast cancer)) of 2740 nM and a GI50 (BT-549 (breast cancer); repeated testing) of 920 nM. It also gave a GI50 (SN12C (renal cancer); repeated testing) of 3020 nM, a GI50 (CCRF-CEM (leukemia)) of 3190 nM and a GI50 (CCRF-CEM (leukemia); repeated testing) of 1840 nM. The LD50ip (male mice) was 280 mg/kg, the GI50 (PC-3 (prostate cancer)) was 1980 nM and the GI50 (PC-3 (prostate cancer); repeated testing) was 2570 nM. The GI50 (SNB-75 (CNS cancer)) was 1260 nM, the GI50 (SNB-75 (CNS cancer); repeated testing) was 670 nM and the GI50 [12] was 1750 nM. For the same compound, the GI50 [2] was 860 nM, the GI50 ([2]; repeated testing) was 1980 nM and the GI50 (A549/ATCC (NSCL cancer)) was 1340 nM. For the same compound, the GI50 (A549/ATCC (NSCL cancer); repeated testing) was 650 nM, the GI50 (HL-60(TB) (leukemia)) was 2010 nM and the GI50 (HL-60(TB) (leukemia); repeated testing) was 1260 nM. For the same compound, the GI50 [3] was 1380 nM, the GI50 ([3]; repeated testing) was 1480 nM and the GI50 (SK-MEL-2 (melanoma)) was 2210 nM. It also gave a GI50 (SK-MEL-2 (melanoma); repeated testing) of 980 nM, a GI50 (NCI-H23 (NSCL cancer)) of 950 nM and a GI50 (NCI-H23 (NSCL cancer); repeated testing) of 410 nM. The GI50 (HCC-2998 (colon cancer)) was 3770 nM, the GI50 (HCC-2998 (colon cancer); repeated testing) was 3240 nM and the GI50 (COLO 205 (colon cancer)) was 2080 nM. It also gave a GI50 (COLO 205 (colon cancer); repeated testing) of 1680 nM, a GI50 (SW-620 (colon cancer)) of 2820 nM and a GI50 (SW-620 (colon cancer); repeated testing) of 3230 nM. For the same compound, the GI50 (OVCAR-5 (ovarian cancer)) was 10400 nM, the GI50 (OVCAR-5 (ovarian cancer); repeated testing) was 4490 nM and the GI50 (SF-295 (CNS cancer) [4]) was 1710 nM. The GI50 (SF-295 (CNS cancer) [4]; repeated testing) was 1140 nM, the GI50 (MALME-3M (melanoma) [5]) was 720 nM and the GI50 (MALME-3M (melanoma) [5]; repeated testing) was 1050 nM. For the same compound, the GI50 (M14 (melanoma) [7]) was 1250 nM, the GI50 (M14 (melanoma) [7]; repeated testing) was 1220 nM and the “Growth % of the most sensitive cell line” value [13] was −48.22%. The “TGI MG_MID” value (60 cancer cell lines [9]) was 10960 nM, the “TGI MG_MID” value (60 cancer cell lines [9]; repeated testing) was “(8.51) μM” and the Mean growth % (60 cancer cell lines [10]) was 17.75%. The “TGI of the most sensitive cell line” value (HS 578T (breast cancer); HS 578T /breast cancer/) was 0.27 / 1.09 μM, the GI50 (HS 578T (breast cancer)) was 270 nM and the GI50 (HS 578T (breast cancer); repeated testing) was 650 nM. For the same compound, the “Growth % of the most sensitive cell line” value ((melanoma)) was −74.12%.
